Laboratory results from Sander's compilation of Henry's law constants (doi:10.1021/je050308b).
Where “and” joins values, the source holds several entries; their conditions need not be identical. Equal entries are not always repeated. Each block holds one compound with its values, some of them ahead of it.

Assay: Henry solubility constant Hcp at 298.15 K (mol/(m3 Pa))
Conditions: reference: Lau et al. (2006)

SMILES: Brc1ccc(Oc2c(Br)cc(Br)cc2Br)c(Br)c1 [2,2',4,4',6-pentabromodiphenyl ether]
- Henry solubility constant Hcp: 0.33 and 0.32

SMILES: Brc1ccc(Oc2ccc(Br)cc2Br)c(Br)c1 [2,2',4,4'-tetrabromodiphenyl ether]
- Henry solubility constant Hcp: 0.16 and 0.17

SMILES: Clc1ccc(-c2ccc(Cl)c(Cl)c2)cc1Cl [3,3',4,4'-tetrachlorobiphenyl]
- Henry solubility constant Hcp: 0.031 and 0.018

SMILES: Brc1ccc(Oc2ccccc2)cc1 [4-bromodiphenyl ether]
- Henry solubility constant Hcp: 0.05 and 0.043

SMILES: Clc1ccc(-c2ccccc2Cl)cc1 [2,4'-dichlorobiphenyl]
- Henry solubility constant Hcp: 0.026 and 0.019

SMILES: Brc1ccc(Oc2cc(Br)c(Br)cc2Br)c(Br)c1 [2,2',4,4',5-pentabromodiphenyl ether]
- Henry solubility constant Hcp: 0.62 and 0.33

SMILES: Clc1ccc(-c2cc(Cl)c(Cl)cc2Cl)cc1Cl [2,3',4,4',5-pentachlorobiphenyl]
- Henry solubility constant Hcp: 0.011 and 0.0056

SMILES: Clc1ccccc1-c1ccccc1 [2-chlorobiphenyl]
- Henry solubility constant Hcp: 0.03 and 0.023

SMILES: Brc1ccc(Oc2ccc(Br)cc2)cc1 [4,4'-dibromodiphenyl ether]
- Henry solubility constant Hcp: 0.083 and 0.071

- Henry solubility constant Hcp: 0.62 and 0.77
SMILES: Brc1ccc(Oc2cc(Br)c(Br)c(Br)c2Br)cc1 [2,3,4,4',5-pentabromodiphenyl ether]

SMILES: Brc1ccc(Oc2ccc(Br)cc2Br)cc1 [2,4,4'-tribromodiphenyl ether]
- Henry solubility constant Hcp: 0.11 and 0.077

SMILES: Clc1ccc(-c2ccc(Cl)cc2)cc1 [4,4'-dichlorobiphenyl]
- Henry solubility constant Hcp: 0.05 and 0.033
